Reference: ChEMBL document CHEMBL5705899 (Biochem J, 2014)
The source made the active and inactive calls. No cut-off for these calls is given here.

Tests used:
[1] = biological target: Serine/threonine-protein kinase Nek6 (Homo sapiens) (UniProt Q9HC98); test: Inhibition of recombinant human His6-tagged NEK6 (8 to 313 residues) expressed in baculovirus infected Sf21 cells assessed as remaining activity at 1 uM using FLAKSFGSPNRAYKK as substrate incubated for 30 mins in presence of [gamma-33P]ATP by filter binding method relative to control
Chain of Serine/threonine-protein kinase Nek6 (Homo sapiens) (Q9HC98 whole entry, the tested form may be a part): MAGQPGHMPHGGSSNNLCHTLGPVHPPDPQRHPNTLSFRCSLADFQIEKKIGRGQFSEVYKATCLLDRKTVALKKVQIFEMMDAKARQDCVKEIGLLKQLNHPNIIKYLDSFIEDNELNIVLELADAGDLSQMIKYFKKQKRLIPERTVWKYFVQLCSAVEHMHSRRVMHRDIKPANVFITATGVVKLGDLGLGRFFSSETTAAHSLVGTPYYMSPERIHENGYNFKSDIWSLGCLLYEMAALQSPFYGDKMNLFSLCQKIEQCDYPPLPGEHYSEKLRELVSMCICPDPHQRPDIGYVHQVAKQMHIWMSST

[2] = biological target: Serine/threonine-protein kinase PAK 4 (Homo sapiens) (UniProt O96013); test: Inhibition of recombinant human N-terminal GST-tagged PAK4 (2 to 519 residues) expressed in Escherichia coli assessed as remaining activity at 1 uM using RRRLSFAEPG as substrate incubated for 30 mins in presence of [gamma-33P]ATP by filter binding method relative to control
[3] = biological target: cGMP-dependent protein kinase 2 (Homo sapiens) (UniProt Q13237); test: Inhibition of human PRKG2 at 1 uM using RBER-GSK3 as substrate in presence of 33P-ATP by ProQinase assay
[4] = biological target: Serine/threonine-protein kinase TAO3 (Homo sapiens) (UniProt Q9H2K8); test: Inhibition of human TAOK3 at 1 uM using 3xChocktide-PKC as substrate in presence of 33P-ATP by ProQinase assay
[5] = biological target: Eukaryotic translation initiation factor 2-alpha kinase 1 (Homo sapiens) (UniProt Q9BQI3); test: Inhibition of human HRI at 1 uM using casein as substrate in presence of 33P-ATP by ProQinase assay
[6] = biological target: Mitogen-activated protein kinase kinase kinase 9 (Homo sapiens) (UniProt P80192); test: Inhibition of recombinant human N-terminal GST-tagged MLK1 (132 to 413 residues) expressed in baculovirus infected Sf21 cells assessed as remaining activity at 1 uM using MBP as substrate incubated for 30 mins in presence of [gamma-33P]ATP by filter binding method relative to control
[7] = biological target: Mitogen-activated protein kinase kinase kinase 5 (Homo sapiens) (UniProt Q99683); test: Inhibition of human ASK1 at 1 uM using RBER-GSK3 as substrate in presence of 33P-ATP by ProQinase assay
[8] = biological target: Serine/threonine-protein kinase Nek6 (Homo sapiens) (UniProt Q9HC98); test: Inhibition of human NEK6 at 1 uM using RBER-GSK3 as substrate in presence of 33P-ATP by ProQinase assay
[9] = biological target: Myosin light chain kinase (Homo sapiens) (UniProt Q32MK0); test: Inhibition of human MYLK3 at 1 uM using RB-S6P as substrate in presence of 33P-ATP by ProQinase assay
[10] = biological target: Tyrosine-protein kinase Mer (Homo sapiens) (UniProt Q12866); test: Inhibition of human MERTK at 1 uM using polyEY as substrate in presence of 33P-ATP by ProQinase assay
[11] = biological target: Rho-associated protein kinase 1 (Homo sapiens) (UniProt Q13464); test: Inhibition of human ROCK1 at 1 uM using 3xChocktide-PKC as substrate in presence of 33P-ATP by ProQinase assay
Chain of Rho-associated protein kinase 1 (Homo sapiens) (Q13464 2-1354 limits assumed): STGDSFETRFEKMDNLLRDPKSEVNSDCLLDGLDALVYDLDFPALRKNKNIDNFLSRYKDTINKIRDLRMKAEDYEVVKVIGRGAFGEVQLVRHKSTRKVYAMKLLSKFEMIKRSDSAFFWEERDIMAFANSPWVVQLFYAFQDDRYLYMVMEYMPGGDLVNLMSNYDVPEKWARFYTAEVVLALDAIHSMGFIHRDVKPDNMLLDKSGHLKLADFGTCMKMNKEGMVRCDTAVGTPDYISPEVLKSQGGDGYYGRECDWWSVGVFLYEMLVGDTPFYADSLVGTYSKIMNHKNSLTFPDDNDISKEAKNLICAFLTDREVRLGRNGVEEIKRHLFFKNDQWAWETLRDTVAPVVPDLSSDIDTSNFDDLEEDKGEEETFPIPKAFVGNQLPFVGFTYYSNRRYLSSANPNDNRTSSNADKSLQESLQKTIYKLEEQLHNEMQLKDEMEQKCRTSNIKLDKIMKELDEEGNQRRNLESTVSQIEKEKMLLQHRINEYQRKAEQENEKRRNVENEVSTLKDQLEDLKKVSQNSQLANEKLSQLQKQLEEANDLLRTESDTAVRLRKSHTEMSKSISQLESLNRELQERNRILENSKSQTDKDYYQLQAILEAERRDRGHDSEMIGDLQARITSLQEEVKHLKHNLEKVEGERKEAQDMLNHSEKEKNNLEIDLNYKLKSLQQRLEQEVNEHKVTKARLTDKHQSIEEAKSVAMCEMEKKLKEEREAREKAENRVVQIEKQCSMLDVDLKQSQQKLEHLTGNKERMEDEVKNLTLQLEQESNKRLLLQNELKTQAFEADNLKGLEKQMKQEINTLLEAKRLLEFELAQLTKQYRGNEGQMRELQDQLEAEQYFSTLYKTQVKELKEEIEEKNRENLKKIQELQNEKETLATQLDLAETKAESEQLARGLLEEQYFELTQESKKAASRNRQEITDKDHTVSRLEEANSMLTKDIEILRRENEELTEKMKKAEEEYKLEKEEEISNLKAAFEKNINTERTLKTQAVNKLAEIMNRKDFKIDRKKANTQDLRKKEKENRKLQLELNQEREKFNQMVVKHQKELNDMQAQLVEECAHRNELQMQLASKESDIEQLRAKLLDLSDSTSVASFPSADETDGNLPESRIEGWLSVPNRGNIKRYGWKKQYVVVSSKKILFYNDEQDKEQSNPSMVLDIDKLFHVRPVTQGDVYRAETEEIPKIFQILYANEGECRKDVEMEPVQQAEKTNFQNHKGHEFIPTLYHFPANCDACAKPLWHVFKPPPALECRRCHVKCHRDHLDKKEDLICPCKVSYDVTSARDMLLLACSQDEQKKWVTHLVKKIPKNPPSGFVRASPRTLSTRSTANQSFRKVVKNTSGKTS

[12] = biological target: Serine/threonine-protein kinase ULK2 (Homo sapiens) (UniProt Q8IYT8); test: Inhibition of recombinant human ULK2 (1 to 1036 residues) expressed in baculovirus infected Sf21 cells assessed as remaining activity at 1 uM using MBP as substrate incubated for 30 mins in presence of [gamma-33P]ATP by filter binding method relative to control
[13] = biological target: Focal adhesion kinase 1 (Homo sapiens) (UniProt Q05397); test: Inhibition of human FAK (2 to 1052 residues) at 1 uM using polyEY as substrate in presence of 33P-ATP by ProQinase assay
[14] = biological target: Receptor tyrosine-protein kinase erbB-4 (Homo sapiens) (UniProt Q15303); test: Inhibition of recombinant human N-terminal His6-tagged HER4 (706 to 991 residues) expressed in baculovirus infected Sf21 cells assessed as remaining activity at 1 uM using Poly (Glu,Tyr) as substrate incubated for 30 mins in presence of [gamma-33P]ATP by filter binding method relative to control
[15] = biological target: Insulin-like growth factor 1 receptor (Homo sapiens) (UniProt P08069); test: Inhibition of recombinant human N-terminal His6-tagged IGF1R (954 to 1367 residues) expressed in baculovirus infected Sf21 cells assessed as remaining activity at 1 uM using KKKSPGEYVNIEFG as substrate incubated for 30 mins in presence of [gamma-33P]ATP by filter binding method relative to control
[16] = biological target: Serine/threonine-protein kinase 26 (Homo sapiens) (UniProt Q9P289); test: Inhibition of human MST4 at 1 uM using RB-CTF as substrate in presence of 33P-ATP by ProQinase assay
[17] = biological target: Discoidin domain-containing receptor 2 (Homo sapiens) (UniProt Q16832); test: Inhibition of recombinant human N-terminal GST-tagged DDR2 (467 to 854 residues) expressed in baculovirus infected Sf21 cells assessed as remaining activity at 1 uM using KKSRGDYMTMQIG as substrate incubated for 30 mins in presence of [gamma-33P]ATP by filter binding method relative to control
[18] = biological target: Tyrosine-protein kinase receptor UFO (Homo sapiens) (UniProt P30530); test: Inhibition of human AXL at 1 uM using polyEy as substrate in presence of 33P-ATP by ProQinase assay
Chain of Tyrosine-protein kinase receptor UFO (Homo sapiens) (P30530 whole entry): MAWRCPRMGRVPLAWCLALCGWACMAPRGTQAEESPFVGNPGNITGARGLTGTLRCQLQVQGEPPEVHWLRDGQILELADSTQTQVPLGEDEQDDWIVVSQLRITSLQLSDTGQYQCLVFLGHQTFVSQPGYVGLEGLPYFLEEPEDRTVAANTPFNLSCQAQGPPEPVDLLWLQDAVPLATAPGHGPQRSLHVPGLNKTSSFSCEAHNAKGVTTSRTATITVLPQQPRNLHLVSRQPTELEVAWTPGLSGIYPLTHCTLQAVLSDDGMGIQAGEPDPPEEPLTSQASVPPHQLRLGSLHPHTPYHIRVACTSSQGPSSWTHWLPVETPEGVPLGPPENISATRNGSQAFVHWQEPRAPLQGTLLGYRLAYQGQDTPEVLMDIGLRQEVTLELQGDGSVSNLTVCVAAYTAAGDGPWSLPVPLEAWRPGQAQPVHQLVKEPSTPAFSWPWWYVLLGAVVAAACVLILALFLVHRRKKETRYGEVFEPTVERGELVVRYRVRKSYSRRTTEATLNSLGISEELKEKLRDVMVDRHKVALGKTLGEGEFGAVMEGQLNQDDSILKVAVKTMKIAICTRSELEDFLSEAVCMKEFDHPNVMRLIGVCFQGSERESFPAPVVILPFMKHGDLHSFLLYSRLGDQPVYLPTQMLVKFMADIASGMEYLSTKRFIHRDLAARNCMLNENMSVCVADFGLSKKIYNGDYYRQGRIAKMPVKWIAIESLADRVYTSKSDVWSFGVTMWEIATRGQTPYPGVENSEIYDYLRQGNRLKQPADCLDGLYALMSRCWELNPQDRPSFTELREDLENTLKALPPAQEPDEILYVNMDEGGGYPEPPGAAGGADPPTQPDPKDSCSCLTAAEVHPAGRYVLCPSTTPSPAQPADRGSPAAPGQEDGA

[19] = biological target: Fibroblast growth factor receptor 3 (Homo sapiens) (UniProt P22607); test: Inhibition of human FGFR3 at 1 uM using polyEY as substrate in presence of 33P-ATP by ProQinase assay
Chain of Fibroblast growth factor receptor 3 (Homo sapiens) (P22607 23-806 limits assumed): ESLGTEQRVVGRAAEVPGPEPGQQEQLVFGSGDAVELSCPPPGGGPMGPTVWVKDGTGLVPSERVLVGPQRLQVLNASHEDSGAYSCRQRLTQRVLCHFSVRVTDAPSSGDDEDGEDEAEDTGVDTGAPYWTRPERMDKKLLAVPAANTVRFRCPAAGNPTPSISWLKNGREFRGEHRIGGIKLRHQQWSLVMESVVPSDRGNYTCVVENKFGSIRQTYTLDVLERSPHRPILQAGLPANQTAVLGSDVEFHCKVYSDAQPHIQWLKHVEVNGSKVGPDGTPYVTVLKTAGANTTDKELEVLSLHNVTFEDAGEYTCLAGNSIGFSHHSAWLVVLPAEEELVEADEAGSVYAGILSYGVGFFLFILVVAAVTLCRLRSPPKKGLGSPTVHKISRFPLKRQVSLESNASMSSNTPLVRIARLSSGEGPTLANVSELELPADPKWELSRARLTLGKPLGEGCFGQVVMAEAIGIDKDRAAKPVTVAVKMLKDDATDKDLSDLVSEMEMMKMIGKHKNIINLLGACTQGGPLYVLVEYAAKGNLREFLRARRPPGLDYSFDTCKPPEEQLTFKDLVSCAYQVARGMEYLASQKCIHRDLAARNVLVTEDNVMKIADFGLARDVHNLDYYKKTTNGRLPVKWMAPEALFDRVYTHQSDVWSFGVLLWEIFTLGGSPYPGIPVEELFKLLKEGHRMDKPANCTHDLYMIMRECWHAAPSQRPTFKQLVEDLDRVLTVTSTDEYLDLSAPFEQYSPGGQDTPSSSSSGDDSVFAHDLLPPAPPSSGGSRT

[20] = biological target: NUAK family SNF1-like kinase 2 (Homo sapiens) (UniProt Q9H093); test: Inhibition of human SNARK at 1 uM using histone H2B as substrate in presence of 33P-ATP by ProQinase assay
Chain of NUAK family SNF1-like kinase 2 (Homo sapiens) (Q9H093 whole entry): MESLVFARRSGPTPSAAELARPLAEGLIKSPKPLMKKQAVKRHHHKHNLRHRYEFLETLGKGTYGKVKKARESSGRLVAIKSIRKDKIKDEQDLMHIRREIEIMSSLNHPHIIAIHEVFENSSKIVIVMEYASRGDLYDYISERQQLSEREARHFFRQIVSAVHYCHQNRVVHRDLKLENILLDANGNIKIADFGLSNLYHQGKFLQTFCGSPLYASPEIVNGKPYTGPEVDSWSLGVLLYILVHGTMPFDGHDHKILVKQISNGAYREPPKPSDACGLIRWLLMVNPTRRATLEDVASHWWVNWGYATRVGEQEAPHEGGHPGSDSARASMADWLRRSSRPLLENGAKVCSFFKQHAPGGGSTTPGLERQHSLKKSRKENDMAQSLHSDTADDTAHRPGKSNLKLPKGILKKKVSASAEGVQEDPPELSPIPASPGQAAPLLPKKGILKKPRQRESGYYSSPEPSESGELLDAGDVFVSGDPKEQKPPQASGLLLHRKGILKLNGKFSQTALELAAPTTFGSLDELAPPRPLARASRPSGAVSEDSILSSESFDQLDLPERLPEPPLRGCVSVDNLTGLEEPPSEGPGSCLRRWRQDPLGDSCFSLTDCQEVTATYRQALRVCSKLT

[21] = biological target: MAP kinase-interacting serine/threonine-protein kinase 2 (Homo sapiens) (UniProt Q9HBH9); test: Inhibition of human MKNK2 at 1 uM using RB-S6P as substrate in presence of 33P-ATP by ProQinase assay
Chain of MAP kinase-interacting serine/threonine-protein kinase 2 (Homo sapiens) (Q9HBH9 whole entry, looked up, the tested form may be a part): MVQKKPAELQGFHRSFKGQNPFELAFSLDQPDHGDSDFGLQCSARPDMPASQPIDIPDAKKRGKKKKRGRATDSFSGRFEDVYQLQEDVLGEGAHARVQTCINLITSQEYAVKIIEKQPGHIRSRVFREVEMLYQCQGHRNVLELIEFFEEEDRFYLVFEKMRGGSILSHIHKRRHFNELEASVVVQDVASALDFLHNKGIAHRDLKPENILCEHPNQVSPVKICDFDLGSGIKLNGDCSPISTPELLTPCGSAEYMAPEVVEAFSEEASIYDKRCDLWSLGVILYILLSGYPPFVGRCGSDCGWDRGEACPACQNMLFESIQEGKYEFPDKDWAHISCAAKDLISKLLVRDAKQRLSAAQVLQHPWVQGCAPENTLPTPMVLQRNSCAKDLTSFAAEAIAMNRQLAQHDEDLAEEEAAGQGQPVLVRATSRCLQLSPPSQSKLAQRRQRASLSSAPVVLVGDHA

[22] = biological target: Aurora kinase B (Homo sapiens) (UniProt Q96GD4); test: Inhibition of recombinant human N-terminal His6-tagged Aurora B (1 to 344 residues) expressed in Escherichia coli assessed as remaining activity at 1 uM using LRRLSLGLRRLSLGLRRLSLGLRRLSLG as substrate incubated for 30 mins in presence of [gamma-33P]ATP by filter binding method relative to control
[23] = biological target: Casein kinase I isoform gamma-3 (Homo sapiens) (UniProt Q9Y6M4); test: Inhibition of human CK1gamma3 at 1 uM using casein as substrate in presence of 33P-ATP by ProQinase assay
Chain of Casein kinase I isoform gamma-3 (Homo sapiens) (Q9Y6M4 whole entry, looked up, canonical isoform): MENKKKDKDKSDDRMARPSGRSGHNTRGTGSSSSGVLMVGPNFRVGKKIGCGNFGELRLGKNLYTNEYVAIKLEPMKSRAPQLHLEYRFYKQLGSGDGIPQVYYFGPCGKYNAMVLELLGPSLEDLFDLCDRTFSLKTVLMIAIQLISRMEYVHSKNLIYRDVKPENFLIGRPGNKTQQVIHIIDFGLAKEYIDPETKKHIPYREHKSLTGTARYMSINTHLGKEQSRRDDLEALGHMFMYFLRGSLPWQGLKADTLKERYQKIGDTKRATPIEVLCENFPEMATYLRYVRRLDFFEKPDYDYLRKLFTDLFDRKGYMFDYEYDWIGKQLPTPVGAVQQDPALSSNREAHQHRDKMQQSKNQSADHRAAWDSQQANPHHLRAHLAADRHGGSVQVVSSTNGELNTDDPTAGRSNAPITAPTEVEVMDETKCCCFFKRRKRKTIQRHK

[24] = biological target: Ribosomal protein S6 kinase alpha-5 (Homo sapiens) (UniProt O75582); test: Inhibition of human RPS6KA5 at 1 uM using RBER-CHKtide as substrate in presence of 33P-ATP by ProQinase assay
[25] = biological target: Beta-adrenergic receptor kinase 1 (Homo sapiens) (UniProt P25098); test: Inhibition of human GRK2 at 1 uM using casein as substrate in presence of 33P-ATP by ProQinase assay

With CC(C)(O)CNc1ncc(-c2ccnc(Nc3ccnc(Cl)c3)n2)c(CC2CC2)n1 the Activity [1] was 98%, the Activity [2] was 103% and the inhibition [3] was “inactive”. For the same molecule, the inhibition [4] was “inactive”, the inhibition [5] was “inactive” and the Activity [6] was 119%. The inhibition [7] was “inactive”, the inhibition [8] was “inactive” and the inhibition [9] was “inactive”. For the same molecule, the inhibition [10] was “inactive”, the inhibition [11] was “inactive” and the Activity [12] was 118%. For the same molecule, the inhibition [13] was “inactive”, the Activity [14] was 101% and the Activity [15] was 101%. The inhibition [16] was “inactive”, the Activity [17] was 111% and the inhibition [18] was “inactive”. The inhibition [19] was “inactive”, the inhibition [20] was “inactive” and the inhibition [21] was “inactive”. The Activity [22] was 83%, the inhibition [23] was “inactive” and the inhibition [24] was “inactive”. The inhibition [25] was “inactive”.
